Experimental data published in the supplement of paper PMC10790783.

Test system: MRC5-hT fibroblasts expressing HCMV UL38 (glucose-free medium)
Assay: rescue of cell number (AUC of dose-response) relative to untreated glucose-free control; higher = stronger protection from glucose-starvation-induced cell death
Settings: glucose: 0 (glucose-free DMEM); 96 h; dose range 0.001-20, 10-point curve µM
Description: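 MRC5-hT fibroblasts stably expressing HCMV UL38 were seeded in 384-well plates, serum-starved for 24 h, switched to glucose-free DMEM, and pin-transferred with a metabolism-focused compound library as 10-point dose curves (1 nM to 20 µM; n=2). Nuclei were counted by Hoechst imaging 96 h after glucose withdrawal.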

Structure (SMILES)	rescue of cell number
CCCCC/C=C/C(=O)CCc1ccc(O)c(OC)c1 [Shogaol]	-6.33%
O=C(CCCCCCCn1cc(-c2cccnc2)nn1)Nc1ccccc1-c1ccccc1 [GPP_78]	20.3%
O=C1N[C@@H]2[C@@H](O)[C@@H](O)[C@H](O)[C@@H](CO)N2C1=O [Kifunensine]	123%
